Our source for the Kd values is ChEMBL document CHEMBL3991601, “The target landscape of clinical kinase drugs” (Science, 2017).

The target in experiment [1] is Mitogen-activated protein kinase 11 (Homo sapiens, UniProt Q15759).
Experiment [2] concerns the target T1, Dual specificity mitogen-activated protein kinase kinase 3 (Homo sapiens, UniProt P46734).
T1 sequence (P46734 whole entry): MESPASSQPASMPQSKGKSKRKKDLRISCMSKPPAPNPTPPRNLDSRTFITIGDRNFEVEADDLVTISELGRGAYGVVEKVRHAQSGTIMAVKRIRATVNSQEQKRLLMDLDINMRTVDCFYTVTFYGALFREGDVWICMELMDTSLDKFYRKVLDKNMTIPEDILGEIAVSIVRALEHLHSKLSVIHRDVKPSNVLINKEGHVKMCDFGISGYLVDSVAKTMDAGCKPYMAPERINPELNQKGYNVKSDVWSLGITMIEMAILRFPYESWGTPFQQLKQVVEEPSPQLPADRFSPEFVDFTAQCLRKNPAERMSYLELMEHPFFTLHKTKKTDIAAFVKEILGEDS

Experiment [3] has as its target U5 small nuclear ribonucleoprotein 200 kDa helicase (Homo sapiens, UniProt O75643).
The target in experiment [4] is Cyclin-dependent kinase 7 (Homo sapiens, UniProt P50613).
Experiment [5] deals with Protein kinase C alpha type (Homo sapiens, UniProt P17252).
In the next experiment the target is DNA topoisomerase 2-beta (Homo sapiens, UniProt Q02880).
Experiment [6] addresses Ras-related protein Rab-6A (Homo sapiens, UniProt P20340).
Experiment [7] has as its target T2, Serine/threonine-protein kinase Nek9 (Homo sapiens, UniProt Q8TD19).
T2 sequence (Q8TD19 whole entry): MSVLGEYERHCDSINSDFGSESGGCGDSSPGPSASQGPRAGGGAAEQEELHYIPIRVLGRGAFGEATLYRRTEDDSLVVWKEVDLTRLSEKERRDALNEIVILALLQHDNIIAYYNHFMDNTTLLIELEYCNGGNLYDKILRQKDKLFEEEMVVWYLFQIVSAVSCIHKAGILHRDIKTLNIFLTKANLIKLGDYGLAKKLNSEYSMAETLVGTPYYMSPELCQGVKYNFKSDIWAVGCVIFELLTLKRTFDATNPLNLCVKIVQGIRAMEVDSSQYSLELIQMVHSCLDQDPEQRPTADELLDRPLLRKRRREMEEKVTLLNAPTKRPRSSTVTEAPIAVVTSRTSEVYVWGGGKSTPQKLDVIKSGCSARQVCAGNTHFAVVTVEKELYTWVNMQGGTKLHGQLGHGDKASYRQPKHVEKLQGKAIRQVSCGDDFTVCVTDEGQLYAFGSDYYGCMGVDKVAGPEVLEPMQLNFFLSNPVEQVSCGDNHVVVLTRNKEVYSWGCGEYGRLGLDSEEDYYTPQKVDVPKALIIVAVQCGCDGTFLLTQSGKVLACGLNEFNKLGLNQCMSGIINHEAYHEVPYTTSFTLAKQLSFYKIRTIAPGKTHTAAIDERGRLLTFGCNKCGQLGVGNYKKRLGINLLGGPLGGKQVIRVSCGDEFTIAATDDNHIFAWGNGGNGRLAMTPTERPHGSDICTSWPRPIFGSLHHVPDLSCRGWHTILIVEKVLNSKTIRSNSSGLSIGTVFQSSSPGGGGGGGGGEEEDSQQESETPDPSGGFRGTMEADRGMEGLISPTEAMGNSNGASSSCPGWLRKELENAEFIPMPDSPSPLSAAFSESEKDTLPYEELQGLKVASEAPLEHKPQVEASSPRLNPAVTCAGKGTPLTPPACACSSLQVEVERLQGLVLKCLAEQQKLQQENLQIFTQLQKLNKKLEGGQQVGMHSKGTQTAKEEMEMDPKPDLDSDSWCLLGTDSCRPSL

For experiment [8], the target named is T3, Breakpoint cluster region protein (Homo sapiens, UniProt P11274).
T3 sequence (P11274 whole entry): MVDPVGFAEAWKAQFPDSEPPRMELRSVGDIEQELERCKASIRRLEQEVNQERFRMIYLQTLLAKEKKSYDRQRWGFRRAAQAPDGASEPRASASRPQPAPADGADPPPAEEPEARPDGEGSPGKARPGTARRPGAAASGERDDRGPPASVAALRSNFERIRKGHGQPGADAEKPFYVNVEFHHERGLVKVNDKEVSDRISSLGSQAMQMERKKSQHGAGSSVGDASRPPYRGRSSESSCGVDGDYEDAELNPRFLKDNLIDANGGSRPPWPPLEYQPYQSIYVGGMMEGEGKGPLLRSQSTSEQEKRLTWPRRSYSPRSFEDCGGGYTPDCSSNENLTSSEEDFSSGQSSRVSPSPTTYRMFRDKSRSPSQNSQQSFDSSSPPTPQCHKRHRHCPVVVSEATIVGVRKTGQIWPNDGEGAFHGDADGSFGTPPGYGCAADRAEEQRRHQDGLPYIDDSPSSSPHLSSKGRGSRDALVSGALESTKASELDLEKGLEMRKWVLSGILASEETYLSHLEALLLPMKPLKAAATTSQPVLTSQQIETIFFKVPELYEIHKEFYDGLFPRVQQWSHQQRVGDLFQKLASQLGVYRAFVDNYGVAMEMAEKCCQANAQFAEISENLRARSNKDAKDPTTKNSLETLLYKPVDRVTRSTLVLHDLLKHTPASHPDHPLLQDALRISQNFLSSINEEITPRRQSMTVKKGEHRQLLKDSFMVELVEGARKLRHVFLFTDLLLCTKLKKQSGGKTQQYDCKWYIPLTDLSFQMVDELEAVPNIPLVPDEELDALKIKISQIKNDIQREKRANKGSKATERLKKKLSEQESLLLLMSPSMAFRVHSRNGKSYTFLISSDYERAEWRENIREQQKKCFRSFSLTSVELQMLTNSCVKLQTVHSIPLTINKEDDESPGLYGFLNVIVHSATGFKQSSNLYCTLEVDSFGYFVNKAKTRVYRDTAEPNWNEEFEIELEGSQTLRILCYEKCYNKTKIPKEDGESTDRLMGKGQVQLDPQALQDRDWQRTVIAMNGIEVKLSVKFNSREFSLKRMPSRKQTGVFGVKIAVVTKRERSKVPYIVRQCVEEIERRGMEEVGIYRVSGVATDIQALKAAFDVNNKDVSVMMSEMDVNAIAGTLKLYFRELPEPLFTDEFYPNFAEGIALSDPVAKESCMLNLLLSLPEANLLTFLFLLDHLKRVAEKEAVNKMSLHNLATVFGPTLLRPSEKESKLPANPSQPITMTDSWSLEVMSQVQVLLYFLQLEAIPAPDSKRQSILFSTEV

For experiment [9], the target named is cAMP-dependent protein kinase catalytic subunit beta (Homo sapiens, UniProt P22694).
The target in experiment [10] is Inosine-5'-monophosphate dehydrogenase 2 (Homo sapiens, UniProt P12268).

Activity calls are given as the source filed them.

What is called Kd is the concentration at which binding is half-saturated.
Further: in the data inactive means no Kd found up to 30 µM.

Chain of Mitogen-activated protein kinase 11 (Q15759 whole entry): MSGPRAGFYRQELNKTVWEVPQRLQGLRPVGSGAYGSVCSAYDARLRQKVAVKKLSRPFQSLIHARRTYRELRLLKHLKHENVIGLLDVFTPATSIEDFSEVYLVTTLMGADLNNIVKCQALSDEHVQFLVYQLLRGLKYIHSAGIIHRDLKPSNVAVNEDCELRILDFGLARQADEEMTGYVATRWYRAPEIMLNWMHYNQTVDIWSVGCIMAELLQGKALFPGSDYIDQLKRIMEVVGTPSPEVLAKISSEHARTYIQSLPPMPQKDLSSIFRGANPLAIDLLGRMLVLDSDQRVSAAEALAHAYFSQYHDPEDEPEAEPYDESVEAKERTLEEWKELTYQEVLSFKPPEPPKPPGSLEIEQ
Chain of DNA topoisomerase 2-beta (Q02880 whole entry): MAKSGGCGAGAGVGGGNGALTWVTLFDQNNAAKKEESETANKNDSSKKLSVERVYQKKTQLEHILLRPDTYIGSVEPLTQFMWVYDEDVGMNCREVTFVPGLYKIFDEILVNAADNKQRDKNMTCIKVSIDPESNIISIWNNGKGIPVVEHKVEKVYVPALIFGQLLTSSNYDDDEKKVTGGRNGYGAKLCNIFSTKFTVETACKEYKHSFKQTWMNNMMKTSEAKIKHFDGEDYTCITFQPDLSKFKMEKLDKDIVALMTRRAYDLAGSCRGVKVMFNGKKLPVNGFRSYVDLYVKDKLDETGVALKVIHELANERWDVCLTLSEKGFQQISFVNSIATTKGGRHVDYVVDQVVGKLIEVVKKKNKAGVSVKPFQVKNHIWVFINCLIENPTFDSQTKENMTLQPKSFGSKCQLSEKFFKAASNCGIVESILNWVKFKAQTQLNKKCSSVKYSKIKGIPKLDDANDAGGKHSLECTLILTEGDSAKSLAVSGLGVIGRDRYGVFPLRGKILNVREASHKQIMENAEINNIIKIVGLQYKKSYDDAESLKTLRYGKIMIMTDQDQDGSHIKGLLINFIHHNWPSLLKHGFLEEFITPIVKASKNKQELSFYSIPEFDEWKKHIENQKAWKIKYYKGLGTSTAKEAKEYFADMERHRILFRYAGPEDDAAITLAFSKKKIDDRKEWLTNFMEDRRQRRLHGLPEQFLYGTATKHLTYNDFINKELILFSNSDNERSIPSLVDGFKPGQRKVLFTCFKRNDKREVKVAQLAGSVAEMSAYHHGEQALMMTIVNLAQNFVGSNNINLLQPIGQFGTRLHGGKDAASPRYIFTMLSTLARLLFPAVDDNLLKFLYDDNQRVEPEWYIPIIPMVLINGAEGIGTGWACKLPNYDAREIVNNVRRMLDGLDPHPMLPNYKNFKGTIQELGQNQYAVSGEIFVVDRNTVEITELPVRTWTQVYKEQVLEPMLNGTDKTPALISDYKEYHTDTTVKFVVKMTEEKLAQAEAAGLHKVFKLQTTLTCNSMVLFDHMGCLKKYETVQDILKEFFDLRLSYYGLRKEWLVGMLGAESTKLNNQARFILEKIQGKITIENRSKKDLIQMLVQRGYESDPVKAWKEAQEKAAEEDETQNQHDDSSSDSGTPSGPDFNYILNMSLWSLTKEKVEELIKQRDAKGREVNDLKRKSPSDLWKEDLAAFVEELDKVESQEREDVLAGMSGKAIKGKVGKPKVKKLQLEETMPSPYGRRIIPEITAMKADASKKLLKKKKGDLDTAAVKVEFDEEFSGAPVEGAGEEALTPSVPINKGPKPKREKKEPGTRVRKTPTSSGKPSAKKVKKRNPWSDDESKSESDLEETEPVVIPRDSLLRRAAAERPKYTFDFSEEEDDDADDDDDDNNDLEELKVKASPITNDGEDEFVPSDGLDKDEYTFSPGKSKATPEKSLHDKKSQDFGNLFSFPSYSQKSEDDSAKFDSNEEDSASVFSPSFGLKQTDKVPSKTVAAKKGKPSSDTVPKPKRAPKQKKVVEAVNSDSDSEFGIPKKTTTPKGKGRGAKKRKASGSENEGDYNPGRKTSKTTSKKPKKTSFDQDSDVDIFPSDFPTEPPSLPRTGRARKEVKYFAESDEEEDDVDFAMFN
Chain of U5 small nuclear ribonucleoprotein 200 kDa helicase (O75643 whole entry): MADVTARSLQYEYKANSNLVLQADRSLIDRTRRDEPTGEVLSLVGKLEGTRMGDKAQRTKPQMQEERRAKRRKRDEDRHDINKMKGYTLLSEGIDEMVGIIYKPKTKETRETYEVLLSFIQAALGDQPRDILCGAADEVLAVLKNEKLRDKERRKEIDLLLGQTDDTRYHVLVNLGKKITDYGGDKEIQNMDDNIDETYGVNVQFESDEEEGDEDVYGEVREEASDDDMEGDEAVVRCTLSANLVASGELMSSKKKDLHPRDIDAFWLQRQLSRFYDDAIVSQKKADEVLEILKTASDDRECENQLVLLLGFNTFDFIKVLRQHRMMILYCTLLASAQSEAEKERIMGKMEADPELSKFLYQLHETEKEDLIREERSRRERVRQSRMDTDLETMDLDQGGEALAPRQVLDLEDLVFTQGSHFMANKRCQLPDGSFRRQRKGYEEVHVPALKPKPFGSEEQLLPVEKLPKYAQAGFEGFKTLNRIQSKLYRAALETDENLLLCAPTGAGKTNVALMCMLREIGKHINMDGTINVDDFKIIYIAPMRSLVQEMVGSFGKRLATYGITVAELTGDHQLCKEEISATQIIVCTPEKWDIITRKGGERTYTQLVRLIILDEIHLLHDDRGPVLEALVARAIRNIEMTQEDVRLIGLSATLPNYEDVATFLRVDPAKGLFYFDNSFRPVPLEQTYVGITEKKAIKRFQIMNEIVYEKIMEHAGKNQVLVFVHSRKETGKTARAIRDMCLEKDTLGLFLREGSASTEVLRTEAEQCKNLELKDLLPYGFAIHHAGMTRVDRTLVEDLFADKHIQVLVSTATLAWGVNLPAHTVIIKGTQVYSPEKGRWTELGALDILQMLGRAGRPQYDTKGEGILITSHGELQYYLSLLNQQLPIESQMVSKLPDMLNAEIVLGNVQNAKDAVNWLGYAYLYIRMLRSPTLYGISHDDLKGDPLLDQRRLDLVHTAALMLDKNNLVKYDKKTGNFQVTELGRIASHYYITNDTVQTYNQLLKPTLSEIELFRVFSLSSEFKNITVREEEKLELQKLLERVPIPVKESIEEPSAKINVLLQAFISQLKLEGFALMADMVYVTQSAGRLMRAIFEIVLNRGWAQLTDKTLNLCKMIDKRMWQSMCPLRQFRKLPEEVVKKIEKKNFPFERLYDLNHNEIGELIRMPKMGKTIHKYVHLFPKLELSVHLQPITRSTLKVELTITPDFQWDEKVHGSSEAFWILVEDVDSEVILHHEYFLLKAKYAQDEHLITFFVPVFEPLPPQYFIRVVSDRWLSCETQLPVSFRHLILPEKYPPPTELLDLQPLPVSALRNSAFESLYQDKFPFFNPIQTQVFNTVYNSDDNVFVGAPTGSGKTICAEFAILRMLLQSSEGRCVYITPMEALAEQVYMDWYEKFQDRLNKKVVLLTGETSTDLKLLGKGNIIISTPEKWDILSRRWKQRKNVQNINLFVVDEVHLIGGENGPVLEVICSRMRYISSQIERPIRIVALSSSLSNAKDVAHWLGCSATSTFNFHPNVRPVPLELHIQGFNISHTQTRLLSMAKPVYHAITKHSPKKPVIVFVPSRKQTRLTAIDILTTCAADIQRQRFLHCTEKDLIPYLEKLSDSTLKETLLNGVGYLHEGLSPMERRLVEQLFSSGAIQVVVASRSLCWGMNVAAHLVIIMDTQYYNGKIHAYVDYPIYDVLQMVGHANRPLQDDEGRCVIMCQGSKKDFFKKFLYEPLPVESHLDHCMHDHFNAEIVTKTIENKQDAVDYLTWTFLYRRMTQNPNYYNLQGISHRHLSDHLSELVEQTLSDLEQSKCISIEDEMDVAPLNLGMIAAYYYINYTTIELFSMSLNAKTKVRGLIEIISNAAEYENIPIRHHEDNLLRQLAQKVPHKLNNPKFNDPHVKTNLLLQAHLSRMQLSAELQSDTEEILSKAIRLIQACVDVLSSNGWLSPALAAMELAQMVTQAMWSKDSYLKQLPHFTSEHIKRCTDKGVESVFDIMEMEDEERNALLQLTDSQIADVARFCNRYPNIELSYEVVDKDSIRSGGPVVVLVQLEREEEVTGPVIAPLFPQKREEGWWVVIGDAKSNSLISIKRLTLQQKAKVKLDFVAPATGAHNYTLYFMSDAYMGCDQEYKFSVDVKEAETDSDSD
Chain of Cyclin-dependent kinase 7 (P50613 whole entry): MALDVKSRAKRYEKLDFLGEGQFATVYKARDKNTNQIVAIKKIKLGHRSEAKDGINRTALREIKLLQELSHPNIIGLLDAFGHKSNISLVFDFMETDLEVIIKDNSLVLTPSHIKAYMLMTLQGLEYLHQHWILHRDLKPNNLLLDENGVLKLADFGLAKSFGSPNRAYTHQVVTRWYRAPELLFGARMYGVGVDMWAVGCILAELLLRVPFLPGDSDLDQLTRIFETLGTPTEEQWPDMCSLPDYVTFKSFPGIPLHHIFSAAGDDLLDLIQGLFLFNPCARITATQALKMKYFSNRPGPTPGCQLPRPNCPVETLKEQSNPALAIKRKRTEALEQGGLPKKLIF
Chain of Ras-related protein Rab-6A (P20340 whole entry): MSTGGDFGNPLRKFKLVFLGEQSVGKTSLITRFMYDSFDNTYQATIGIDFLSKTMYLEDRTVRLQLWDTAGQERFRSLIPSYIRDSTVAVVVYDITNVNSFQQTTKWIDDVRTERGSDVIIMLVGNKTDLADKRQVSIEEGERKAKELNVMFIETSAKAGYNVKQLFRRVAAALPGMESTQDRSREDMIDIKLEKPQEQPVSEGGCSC

For `Nc1ncnc2c1c(-c1cccc(OCc3ccccc3)c1)cn2[C@H]1C[C@@H](CN2CCC2)C1` [AEW-541], the Kd (in experiment [1]; in experiment [2]; in [3]; in experiment [4]; in experiment [5]; at DNA topoisomerase 2-beta) was > 30 µM (inactive) throughout. In addition, the Kd in experiment [6], in experiment [7], in experiment [8] and in experiment [9] was > 30 µM (inactive) in each case.

Regarding `Cc1cc(Nc2ncc(Cl)c(Nc3ccccc3S(=O)(=O)C(C)C)n2)c(OC(C)C)cc1C1CCNCC1` [CERITINIB], the Kd (in [1]; in experiment [2]; in experiment [3]; in [4]; in [5]; on DNA topoisomerase 2-beta) was > 30 µM (inactive) in each case. For the same compound, the Kd in [6], in [7], in [8] and in experiment [9] was > 30 µM (inactive) in each case.

Turning to `COc1ccc(S(=O)(=O)N(C(C)=O)c2ccccc2/C=C/c2cc[n+]([O-])cc2)cc1` [HMN-214], the Kd (in experiment [1]; in experiment [2]; in [3]; in experiment [4]; in experiment [5]; on DNA topoisomerase 2-beta) was > 30 µM (inactive) each time. Further, the Kd in experiment [6], in experiment [7], in experiment [8] and in [9] was > 30 µM (inactive) in each case.

In the case of `FC(F)(F)c1ccc(/C=C/c2nc(COc3ccc(CCCCn4ccnn4)cc3)co2)cc1` [MUBRITINIB], the Kd (in experiment [1]; in experiment [2]; in [3]; in [4]; in [5]; on DNA topoisomerase 2-beta) was > 30 µM (inactive) in each case. The Kd in experiment [6], in experiment [7], in [8] and in experiment [9] was > 30 µM (inactive) in each case.

For the compound `Cc1nc(Nc2n[nH]c3c2CN(C(=O)N[C@H](CN(C)C)c2ccccc2)C3(C)C)c2sccc2n1` [PF-03758309], the Kd in [1] was > 30 µM (inactive); in [2], > 30 µM (inactive); in experiment [3] it was > 30 µM (inactive); in experiment [4] it was 0.003 µM (active); in experiment [5], 0.873 µM (active); at DNA topoisomerase 2-beta, > 30 µM (inactive). Also, the Kd in [6] was > 30 µM (inactive); in experiment [7] it was > 30 µM (inactive); in [8], 1.28 µM (active).

For `CCS(=O)(=O)c1cccc(-c2cc(C(=O)NC3CCN(C)CC3)c(C)c3[nH]c4ncc(C)cc4c23)c1` [TAK-901], the Kd is > 30 µM (inactive) in [1]; > 30 µM (inactive) in experiment [2]; > 30 µM (inactive) in [3]; 0.205 µM (active) in experiment [4]; 1.61 µM (active) in [5]; > 30 µM (inactive) on DNA topoisomerase 2-beta. In addition, the Kd is > 30 µM (inactive) in experiment [6], > 30 µM (inactive) in experiment [7], 0.133 µM (active) in experiment [8] and > 30 µM (inactive) in experiment [9].

Take `Cn1ncc(Cl)c1-c1cc(C(=O)N[C@H](CN)Cc2ccc(F)c(F)c2)oc1Cl` [UPROSERTIB]: the Kd is > 30 µM (inactive) in experiment [1]; > 30 µM (inactive) in experiment [2]; > 30 µM (inactive) in [3]; > 30 µM (inactive) in experiment [10]; 1.67 µM (active) in experiment [5]; > 30 µM (inactive) at DNA topoisomerase 2-beta. The Kd in experiment [6] is > 30 µM (inactive); in [7], > 30 µM (inactive); in experiment [8], > 30 µM (inactive); in experiment [9], 0.049 µM (active).
